Test results: patent publication US20250223268A1, “4-Methylsulfonylbenzamide Compound, Preparation Method, Herbicidal Composition And Use” (Jiangsu Flag Chemical Industry Co., Ltd., priority 2022, published 2025)

Experiments:
Format in all cases: in vivo
Echinochloa crusgalli [1] = test: Greenhouse herbicidal activity and crop safety comparison (Test Example 2); details: Rate 150 g/ha
In short: (§1)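 Fresh weight inhibition, banded into grades A to E (E <20%), was rated 14-21 days after foliar spraying of 3-6 leaf plants, or 14-30 days after a soil spray applied 24 h post-sowing.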

Leptochloa chinensis [2] = test: as above; details: Rate 150 g/ha
In short: as §1

[3] = test system: Oryza sativa subsp. indica; test: as above; details: Rate 150 g/ha
In short: as §1

[4] = test system: Oryza sativa subsp. japonica; test: as above; details: Rate 150 g/ha
In short: as §1

Cyperus iria = test: Greenhouse herbicidal activity assay, post-emergence; details: Post-emergence test, rate 150 g a.i./hm^2, grade by fresh weight inhibition rate
In short: (§2)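 Scores reflect fresh weight inhibition assessed 14-21 days after treatment, with grade A meaning ≥80% to 100% and grade E meaning <20%. Plants, raised in nutrient-soil pots inside a growth chamber, were sprayed on the foliage at the 3-6 leaf stage.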

Digitaria sanguinalis = test: as above; details: Post-emergence test, rate 150 g a.i./hm^2, grade by fresh weight inhibition rate
In short: as §2

Echinochloa crusgalli [5] = test: as above; details: Post-emergence test, rate 150 g a.i./hm^2, grade by fresh weight inhibition rate
In short: as §2

Eclipta prostrata = test: as above; details: Post-emergence test, rate 150 g a.i./hm^2, grade by fresh weight inhibition rate
In short: as §2

Leptochloa chinensis [6] = test: as above; details: Post-emergence test, rate 150 g a.i./hm^2, grade by fresh weight inhibition rate
In short: as §2

Row | Structure (SMILES) | Echinochloa crusgalli, control efficacy grading (fresh weight inhibition rate) (Echinochloa crusgalli [1]) | Leptochloa chinensis, control efficacy grading (fresh weight inhibition rate) (Leptochloa chinensis [2]) | Oryza sativa subsp. indica, grading of fresh weight inhibition rate (crop safety) [3] | Oryza sativa subsp. japonica, grading of fresh weight inhibition rate (crop safety) [4] | Control efficacy grade, Cyperus iria (Cyperus iria) | Control efficacy grade, Digitaria sanguinalis (Digitaria sanguinalis) | Control efficacy grade, Echinochloa crusgalli (Echinochloa crusgalli [5]) | Control efficacy grade, Eclipta prostrata (Eclipta prostrata) | Control efficacy grade, Leptochloa chinensis (Leptochloa chinensis [6]) | inhibition at 150 g/ha (Echinochloa crusgalli [1]; Echinochloa crus-galli, read-out: Echinochloa crusgalli, control efficacy grading (fresh weight inhibition rate)) [%] | inhibition at 150 g/ha (Leptochloa chinensis [2]; Dinebra chinensis, read-out: Leptochloa chinensis, control efficacy grading (fresh weight inhibition rate)) [%] | pest or weed control at 150 g/ha (Cyperus iria; Cyperus iria, read-out: Control efficacy grade, Cyperus iria) [%] | pest or weed control at 150 g/ha (Digitaria sanguinalis; Digitaria sanguinalis, read-out: Control efficacy grade, Digitaria sanguinalis) [%] | pest or weed control at 150 g/ha (Echinochloa crusgalli [5]; Echinochloa crus-galli, read-out: Control efficacy grade, Echinochloa crusgalli) [%] | pest or weed control at 150 g/ha (Eclipta prostrata; Eclipta prostrata, read-out: Control efficacy grade, Eclipta prostrata) [%] | pest or weed control at 150 g/ha (Leptochloa chinensis [6]; Dinebra chinensis, read-out: Control efficacy grade, Leptochloa chinensis) [%]
1 | Cc1nnc(NC(=O)c2ccc(S(C)(=O)=O)c(S(=O)(=O)C3CCCC3)c2Cl)o1 [Compound 3-91] | A (Fresh weight inhibition rate≥80% to 100%) | A (Fresh weight inhibition rate≥80% to 100%) | E (Fresh weight inhibition rate<20%) | E (Fresh weight inhibition rate<20%) | A (Fresh weight inhibition rate≥80% to 100%) | A (Fresh weight inhibition rate≥80% to 100%) | A (Fresh weight inhibition rate≥80% to 100%) | A (Fresh weight inhibition rate≥80% to 100%) | A (Fresh weight inhibition rate≥80% to 100%) | – | – | – | – | – | – | –
2 | Cc1nnc(NC(=O)c2ccc(S(C)(=O)=O)c(S(=O)(=O)C3CCC3)c2Cl)o1 [Compound 3-86] | A (Fresh weight inhibition rate≥80% to 100%) | A (Fresh weight inhibition rate≥80% to 100%) | E (Fresh weight inhibition rate<20%) | E (Fresh weight inhibition rate<20%) | A (Fresh weight inhibition rate≥80% to 100%) | A (Fresh weight inhibition rate≥80% to 100%) | A (Fresh weight inhibition rate≥80% to 100%) | A (Fresh weight inhibition rate≥80% to 100%) | A (Fresh weight inhibition rate≥80% to 100%) | – | – | – | – | – | – | –
3 | CCC(C)S(=O)(=O)c1c(S(C)(=O)=O)ccc(C(=O)Nc2nnc(C)o2)c1Cl (racemic) [Compound 3-24] | A (Fresh weight inhibition rate≥80% to 100%) | A (Fresh weight inhibition rate≥80% to 100%) | E (Fresh weight inhibition rate<20%) | E (Fresh weight inhibition rate<20%) | A (Fresh weight inhibition rate≥80% to 100%) | A (Fresh weight inhibition rate≥80% to 100%) | A (Fresh weight inhibition rate≥80% to 100%) | A (Fresh weight inhibition rate≥80% to 100%) | A (Fresh weight inhibition rate≥80% to 100%) | – | – | – | – | – | – | –
4 | C=CCS(=O)(=O)c1c(S(C)(=O)=O)ccc(C(=O)Nc2nnc(C)o2)c1Cl [Compound 3-116] | A (Fresh weight inhibition rate≥80% to 100%) | A (Fresh weight inhibition rate≥80% to 100%) | E (Fresh weight inhibition rate<20%) | E (Fresh weight inhibition rate<20%) | C (Fresh weight inhibition rate≥40% to <60%) | A (Fresh weight inhibition rate≥80% to 100%) | A (Fresh weight inhibition rate≥80% to 100%) | A (Fresh weight inhibition rate≥80% to 100%) | A (Fresh weight inhibition rate≥80% to 100%) | – | – | – | – | – | – | –
5 | CC(C)S(=O)(=O)c1c(S(C)(=O)=O)ccc(C(=O)Nc2nnc(C3CC3)o2)c1Cl [Compound 3-624, 2-chloro-N-(5-cyclopropyl-1,3,4-oxadiazol-2-yl)-3-(isopropylsulfonyl)-4-(methylsulfonyl)benzamide] | – | – | E (Fresh weight inhibition rate<20%) | E (Fresh weight inhibition rate<20%) | – | – | – | – | – | 80 to 100 | 80 to 100 | 80 to 100 | 80 to 100 | 80 to 100 | 80 to 100 | 80 to 100
6 | C=CCS(=O)(=O)c1c(S(C)(=O)=O)ccc(C(=O)Nc2nnc(CC)o2)c1Cl [Compound 3-458] | A (Fresh weight inhibition rate≥80% to 100%) | A (Fresh weight inhibition rate≥80% to 100%) | E (Fresh weight inhibition rate<20%) | E (Fresh weight inhibition rate<20%) | A (Fresh weight inhibition rate≥80% to 100%) | A (Fresh weight inhibition rate≥80% to 100%) | A (Fresh weight inhibition rate≥80% to 100%) | A (Fresh weight inhibition rate≥80% to 100%) | A (Fresh weight inhibition rate≥80% to 100%) | – | – | – | – | – | – | –
7 | CS(=O)(=O)c1ccc(C(=O)Nc2nnco2)c(Cl)c1S(=O)(=O)CC(F)(F)F [Compound 3-327] | A (Fresh weight inhibition rate≥80% to 100%) | A (Fresh weight inhibition rate≥80% to 100%) | E (Fresh weight inhibition rate<20%) | E (Fresh weight inhibition rate<20%) | A (Fresh weight inhibition rate≥80% to 100%) | B (Fresh weight inhibition rate≥260% to <80%) | A (Fresh weight inhibition rate≥80% to 100%) | A (Fresh weight inhibition rate≥80% to 100%) | A (Fresh weight inhibition rate≥80% to 100%) | – | – | – | – | – | – | –
8 | Cc1nnc(NC(=O)c2ccc(S(C)(=O)=O)c(S(=O)(=O)CCC#N)c2Cl)o1 [Compound 3-201] | C (Fresh weight inhibition rate≥40% to <60%) | A (Fresh weight inhibition rate≥80% to 100%) | E (Fresh weight inhibition rate<20%) | E (Fresh weight inhibition rate<20%) | A (Fresh weight inhibition rate≥80% to 100%) | – | – | A (Fresh weight inhibition rate≥80% to 100%) | A (Fresh weight inhibition rate≥80% to 100%) | – | – | – | – | – | – | –
9 | CS(=O)(=O)c1ccc(C(=O)Nc2nnc(C3CC3)o2)c(Cl)c1S(=O)(=O)C1CCC1 [Compound 3-660] | C (Fresh weight inhibition rate≥40% to <60%) | A (Fresh weight inhibition rate≥80% to 100%) | E (Fresh weight inhibition rate<20%) | E (Fresh weight inhibition rate<20%) | A (Fresh weight inhibition rate≥80% to 100%) | – | – | A (Fresh weight inhibition rate≥80% to 100%) | A (Fresh weight inhibition rate≥80% to 100%) | – | – | – | – | – | – | –
10 | CCc1nnc(NC(=O)c2ccc(S(C)(=O)=O)c(S(=O)(=O)CC(F)(F)F)c2Cl)o1 [Compound 3-443] | C (Fresh weight inhibition rate≥40% to <60%) | A (Fresh weight inhibition rate≥80% to 100%) | E (Fresh weight inhibition rate<20%) | E (Fresh weight inhibition rate<20%) | A (Fresh weight inhibition rate≥80% to 100%) | – | – | A (Fresh weight inhibition rate≥80% to 100%) | A (Fresh weight inhibition rate≥80% to 100%) | – | – | – | – | – | – | –
11 | Cc1nnc(NC(=O)c2ccc(S(C)(=O)=O)c(S(=O)(=O)C3CCCCC3)c2Cl)o1 [Compound 3-96] | C (Fresh weight inhibition rate≥40% to <60%) | A (Fresh weight inhibition rate≥80% to 100%) | E (Fresh weight inhibition rate<20%) | E (Fresh weight inhibition rate<20%) | A (Fresh weight inhibition rate≥80% to 100%) | – | – | A (Fresh weight inhibition rate≥80% to 100%) | A (Fresh weight inhibition rate≥80% to 100%) | – | – | – | – | – | – | –
